Read-outs that look alike come from different tables or passages of the source.
Key:
[1] = tested on: HPIV3 clinical isolate (CI-1) eGFP
[2] = tested on: HPIV3 clinical isolate HN neuraminidase; assay: Neuraminidase activity on cell monolayers expressing HN; type: biochemical, human parainfluenza virus type 3; conditions: 37°C, pH 5
Procedure: (§1) (A) Sensitivity of HN-receptor binding to viral entry inhibitors of cell monolayers expressing clinical isolate HPIV3 HN, incubated with either PAC-3066, zanamivir, or DMSO. Percent inhibition relative to that for DMSO-treated cells is shown. Each point represents the mean from 3 experiments, each of which was performed in triplicate, ± SEM. […] Each bar represents the results from triplicate experiments, each of which was performed in triplicate, ± SEM.
Assays for the measurement of neuraminidase activity were performed in transiently transfected 293T cell monolayers, as described previously ([13], [34], [82]). Briefly, 293T cells expressing HN were added to 96-well plates in CO2-independent medium at pH 5.0. After adding reaction mixtures containing 20 mM 2′-(4-methylumbelliferyl)-alpha-D-N-acetylneuraminic acid (Toronto Research Chemicals Inc.) substrate and different concentrations of the compounds, the plates were incubated at 37°C for 1 h. Throughout this period, the fluorescence resulting from hydrolysis of the substrate was read at a 365-nm excitation wavelength and a 450-nm emission wavelength using a Tecan M-1000 Pro microplate reader.

mCherry-HPIV3 [3] = tested on: mCherry-HPIV3
[4] = tested on: HPIV3 clinical isolate (CI-1) eGFP; assay: microbe, parasite or virus in culture; conditions: Human respirovirus 3, read-out: IC50 for inhibition of viral entry
mCherry-HPIV3 [5] = assay: microbe, parasite or virus in culture; conditions: Human respirovirus 3, Vero, read-out: IC50 of pure compound (inhibition of viral spread)
[6] = tested on: clinical isolate HPIV3 HN; assay: Hemadsorption (HAD) assay of HN-receptor binding; type: cell-based, human parainfluenza virus type 3; conditions: cells expressing clinical strain HN, RBC binding
Procedure: We assessed the effect of PAC-3066 on HPIV3 HN-receptor binding in a hemadsorption (HAD) assay that quantitates the binding of sialic acid receptor-bearing erythrocytes (RBC) to HN/F-coexpressing cells.
as §1
Hemadsorption (HAD) was performed and quantified as previously described ([13]). Briefly, the growth medium was aspirated from HN-transfected 293T cell monolayers in 48-well BioCoat plates (Becton Dickson Labware), the medium was replaced with 150 μl of CO2-independent medium (pH 7.3; Gibco) containing different concentrations of compounds and 1% RBC in serum-free CO2-independent medium, and the plates were placed at 4°C for 30 min. The wells were then washed three times with 150 μl cold CO2-independent medium. The bound RBCs were lysed with 200 μl RBC lysis solution (0.145 M NH4Cl, 17 mM Tris HCl), and the absorbance at 405 nm was read using a Tecan M-1000 Pro microplate reader.

| Structure (SMILES) | inhibition of viral infection by HPIV3 [1] | effect on viral neuraminidase activity [2] | combination effect with zanamivir (mCherry-HPIV3 [3]; PAC-3066 concentrations below 250 μM) | antagonism with zanamivir (mCherry-HPIV3 [3]; all pairwise combinations) | combination effect with zanamivir (mCherry-HPIV3 [3]; higher PAC-3066 concentrations, e.g. 1,000 μM) | combination effect with zanamivir (mCherry-HPIV3 [3]; range of zanamivir/PAC-3066 ratios, strongest at 1:1, 1:3 or greater, PAC-3066 250 μM, Combenefit) | IC50 [4] | IC50 (mCherry-HPIV3 [5]) | effect on HN-receptor binding [6] |
| --- | --- | --- | --- | --- | --- | --- | --- | --- | --- |
| N#CCc1cc(NS(=O)(=O)c2cccs2)ccc1O [CM9, reference compound] | inhibited viral infection by HPIV3 |  |  |  |  |  |  |  |  |
| CC(=O)Nc1cc(NS(=O)(=O)c2ccc(F)cc2F)ccc1O [PAC-3066] | inhibited viral infection by HPIV3 | no inhibitory effect | only additive effects were observed | No significant antagonism was observed | no synergy | strong synergy | ~37 µM | 308 µM | did not affect receptor binding |
| CC(=O)N[C@H]1[C@H]([C@H](O)[C@H](O)CO)OC(C(=O)O)=C[C@@H]1N=C(N)N [zanamivir, reference compound] |  | inhibits HPIV3 HN’s neuraminidase |  |  |  |  |  |  | inhibits HN-receptor binding |

Source: paper PMC7018645, “Hijacking the Fusion Complex of Human Parainfluenza Virus as an Antiviral Strategy” (mBio, 2020)
